In US6867207B2, “IL-5 inhibiting 6-azauracil derivatives” (Janssen Pharmaceutica N.V., priority 1997, dated 2005):
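Note: values marked with an asterisk were tested at 10 µM and unmarked values at 1 µM.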

What follows are compounds tested on IL-5 production (assay: In vitro inhibition of IL-5 production in human blood (phytohemagglutinin-stimulated whole blood, ELISA)). Details: test dose 1×10^−6 M, 48 hours.
Format: cell-based
How it was run: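 Percent inhibition of IL-5, quantified by ELISA in cell-free supernatants, is given at a single dose of 1×10^−6 M (or 1×10^−5 M). Threefold-diluted human whole blood from healthy men received compound for 60 min at 37° C before 48 h PHA stimulation at 2 μg/mL.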
With `O=c1cnn(-c2ccc(C(O)(c3ccc(Cl)cc3)c3cccnc3)c(Cl)c2)c(=O)[nH]1` (stereo not shown) [Comp 117] the “% inh. (percentage inhibition of IL-5 production)” value was 34%. In the case of `CN(C)c1ccnc(SC(c2ccc(Cl)cc2)c2c(Cl)cc(-n3ncc(=O)[nH]c3=O)cc2Cl)n1` (racemic) [Compound 355], the “% inh. (percentage inhibition of IL-5 production)” value is reported as 83%. In the case of `O=c1cnn(-c2cc(Cl)c(C(c3ccc(Cl)cc3)c3nc(-c4cccc(F)c4)cs3)c(Cl)c2)c(=O)[nH]1` (single isomer, unassigned) [Comp 319], the “% inh. (percentage inhibition of IL-5 production)” value is reported as 84%. `Cc1cc(-n2ncc(=O)[nH]c2=O)cc(C)c1C(c1ccc(Cl)c(Cl)c1)c1nc(-c2ccccc2)cs1` (racemic) [Comp 270] was tested, and the “% inh. (percentage inhibition of IL-5 production)” value was 86%. `COc1ccccc1-c1nnc(C(c2ccc(Cl)cc2)c2c(Cl)cc(-n3ncc(=O)[nH]c3=O)cc2Cl)o1` (racemic) [Compound 174] was tested, and the “% inh. (percentage inhibition of IL-5 production)” value was 83%. In the case of `O=c1cnn(-c2ccc(C(c3ccc(Cl)cc3)c3scnc3-c3cccc(F)c3)c(Cl)c2)c(=O)[nH]1` (racemic) [Compound 148], the “% inh. (percentage inhibition of IL-5 production)” value is reported as 79%. In the case of `O=c1cnn(-c2cc(Cl)c(C(c3ccc(Cl)cc3)c3sc(-c4ccccc4)nc3-c3ccccc3Cl)c(Cl)c2)c(=O)[nH]1` (racemic) [Compound 145], the “% inh. (percentage inhibition of IL-5 production)” value is reported as 37%. `CN1CCC(NC(c2ccc(Cl)cc2)c2ccc(-n3ncc(=O)[nH]c3=O)cc2Cl)CC1` (racemic) [Compound 48, (±)-2-[3-chloro-4-[(4-chlorophenyl)[(1-methyl)-4-piperidinyl)amino]methyl]phenyl]-1,2,4-triazine-3,5(2H,4H)-dione] was tested, and the “% inh. (percentage inhibition of IL-5 production)” value was 29%. In the case of `CCc1sc(C(c2ccc(Cl)cc2)c2c(Cl)cc(-n3ncc(=O)[nH]c3=O)cc2Cl)nc1-c1ccccc1` (racemic) [Comp 224], the “% inh. (percentage inhibition of IL-5 production)” value is reported as 95%. `O=C(Cc1sc(C(c2ccc(Cl)cc2)c2c(Cl)cc(-n3ncc(=O)[nH]c3=O)cc2Cl)nc1-c1ccccc1)NC1CCN(Cc2ccccc2)CC1` (racemic) [Comp 326] was tested, and the “% inh. (percentage inhibition of IL-5 production)” value was 89%. With `CC(c1ccc(Cl)c(F)c1)(c1nc(-c2ccccc2)cs1)c1c(Cl)cc(-n2ncc(=O)[nH]c2=O)cc1Cl` (racemic) [Comp 288] the “% inh. (percentage inhibition of IL-5 production)” value was 90%. In the case of `Cc1nc(-c2ccccc2Cl)sc1C(c1ccc(Cl)cc1)c1c(Cl)cc(-n2ncc(=O)[nH]c2=O)cc1Cl` (racemic) [Compound 137], the “% inh. (percentage inhibition of IL-5 production)” value is reported as 64%. For `O=c1cnn(-c2cc(Cl)c(C(c3ccc(Cl)cc3)c3nnc(-c4cccs4)o3)c(Cl)c2)c(=O)[nH]1` (racemic) [Compound 166], the “% inh. (percentage inhibition of IL-5 production)” value was 87%. In the case of `CC(c1ccc(Cl)c(C(F)(F)F)c1)(c1nc(-c2ccccc2)cs1)c1ccc(-n2ncc(=O)[nH]c2=O)cc1Cl` (racemic) [Comp 239], the “% inh. (percentage inhibition of IL-5 production)” value is reported as 72%. With `Cc1nnc(SC(c2ccc(Cl)cc2)c2ccc(-n3ncc(=O)[nH]c3=O)cc2Cl)s1` (racemic) [Compound 56] the “% inh. (percentage inhibition of IL-5 production)” value was 41%. `O=c1cnn(-c2cc(Cl)c(C(c3ccc(Cl)cc3)c3nnc(CCOc4ccccc4)o3)c(Cl)c2)c(=O)[nH]1` (racemic) [Compound 187] was tested, and the “% inh. (percentage inhibition of IL-5 production)” value was 25%. In the case of `O=c1cnn(-c2cc(Cl)c(C(c3ccc(Cl)cc3)c3csc(-c4ccccc4Cl)n3)c(Cl)c2)c(=O)[nH]1` (racemic) [Compound 367], the “% inh. (percentage inhibition of IL-5 production)” value is reported as 74%. `CNCc1sc(C(c2ccc(Cl)cc2)c2c(Cl)cc(-n3ncc(=O)[nH]c3=O)cc2Cl)nc1-c1ccccc1.Cl.O.O.O` (racemic) [Comp 296] was tested, and the “% inh. (percentage inhibition of IL-5 production)” value was 92%. `O=c1cnn(-c2cc(Cl)c(C(c3ccc(Cl)cc3)c3csc(-c4cccc(F)c4)n3)c(Cl)c2)c(=O)[nH]1` (racemic) [Compound 368] was tested, and the “% inh. (percentage inhibition of IL-5 production)” value was 88%. In the case of `CN(C)Cc1sc(C(c2ccc(Cl)cc2)c2c(Cl)cc(-n3ncc(=O)[nH]c3=O)cc2Cl)nc1-c1ccccc1` (racemic) [Comp 253], the “% inh. (percentage inhibition of IL-5 production)” value is reported as 96%. For `CC(c1ccc(Cl)cc1)(c1nc(-c2ccccc2)c(-c2ccccc2)s1)c1c(Cl)cc(-n2ncc(=O)[nH]c2=O)cc1Cl` (racemic) [Comp 18], the “% inh. (percentage inhibition of IL-5 production)” value was 88%. For `Cn1ccnc1C(O)(c1ccc(Cl)cc1)c1ccc(-n2ncc(=O)[nH]c2=O)cc1Cl.O` (racemic) [Compound 120, (±)-2-[3-chloro[4-[(4-chlorophenyl)hydroxy(1-methyl-1H-imidazol-2-yl)methyl]phenyl]-1,2,4-triazine-3,5(2H,4H)-dione monohydrate], the “% inh. (percentage inhibition of IL-5 production)” value was 10%. For `COCCNC(c1ccc(Cl)cc1)c1ccc(-n2ncc(=O)[nH]c2=O)cc1Cl` (racemic) [Compound 41], the “% inh. (percentage inhibition of IL-5 production)” value was 11%. With `O=c1cnn(-c2ccc(C(SCc3ccc(Cl)cc3)c3ccc(Cl)cc3)c(Cl)c2)c(=O)[nH]1` (racemic) [Compound 67] the “% inh. (percentage inhibition of IL-5 production)” value was 69%. `O=c1cnn(-c2ccc(C(Sc3nnc(C(F)(F)F)[nH]3)c3ccc(Cl)cc3)c(Cl)c2)c(=O)[nH]1` (stereo not shown) [Compound 89] was tested, and the “% inh. (percentage inhibition of IL-5 production)” value was 19%. For `O=c1cnn(-c2cc(Cl)c(C(Sc3ccccn3)c3ccc(Cl)c(C(F)(F)F)c3)c(Cl)c2)c(=O)[nH]1` (stereo not shown) [Compound 378], the “% inh. (percentage inhibition of IL-5 production)” value was 91%. For `O=c1cnn(-c2cc(Cl)c(C(c3ccc(Cl)cc3)c3nnc(C4CCCCC4)o3)c(Cl)c2)c(=O)[nH]1` (racemic) [Compound 159], the “% inh. (percentage inhibition of IL-5 production)” value was 87%. `CC(=O)Nc1ccc(SC(c2ccc(Cl)c(C(F)(F)F)c2)c2c(Cl)cc(-n3ncc(=O)[nH]c3=O)cc2Cl)cc1` (racemic) [Compound 398] was tested, and the “% inh. (percentage inhibition of IL-5 production)” value was 96%. With `N#CCc1nnc(C(c2ccc(Cl)cc2)c2c(Cl)cc(-n3ncc(=O)[nH]c3=O)cc2Cl)o1` (racemic) [Compound 179] the “% inh. (percentage inhibition of IL-5 production)” value was 21%. In the case of `O=c1cnn(-c2cc(Cl)c(C(c3ccc(Cl)cc3)c3nc(-c4cccc(F)c4)cs3)c(Cl)c2)c(=O)[nH]1` (single isomer, unassigned) [Comp 318], the “% inh. (percentage inhibition of IL-5 production)” value is reported as 81%. For `CN(C)Cc1sc(C(c2ccc(Cl)cc2)c2c(Cl)cc(-n3ncc(=O)[nH]c3=O)cc2Cl)nc1-c1cccc(F)c1` (racemic) [Comp 280], the “% inh. (percentage inhibition of IL-5 production)” value was 96%. For `COCCNC(=O)Cc1sc(C(c2ccc(Cl)cc2)c2c(Cl)cc(-n3ncc(=O)[nH]c3=O)cc2Cl)nc1-c1ccccc1` (racemic) [Comp 320], the “% inh. (percentage inhibition of IL-5 production)” value was 94%. In the case of `O=c1cnn(-c2cc(Cl)c(C(c3ccc(Cl)cc3)c3nc(-c4cccc(Cl)c4)cs3)c(Cl)c2)c(=O)[nH]1` (racemic) [Comp 19], the “% inh. (percentage inhibition of IL-5 production)” value is reported as 83%. For `CN(C)CCSC(c1ccc(Cl)cc1)c1ccc(-n2ncc(=O)[nH]c2=O)cc1Cl` (racemic) [Compound 54], the “% inh. (percentage inhibition of IL-5 production)” value was 14%. `O=c1cnn(-c2ccc(C(c3ccc(Cl)cc3)c3sc(-c4ccccc4Cl)nc3-c3ccccc3Cl)c(Cl)c2)c(=O)[nH]1` (racemic) [Compound 151] was tested, and the “% inh. (percentage inhibition of IL-5 production)” value was 17%. In the case of `CN1CCN(Cc2sc(C(c3ccc(Cl)cc3)c3c(Cl)cc(-n4ncc(=O)[nH]c4=O)cc3Cl)nc2-c2ccccc2)CC1` (racemic) [Comp 302], the “% inh. (percentage inhibition of IL-5 production)” value is reported as 87%. `O=c1cnn(-c2cc(Cl)c(C(c3ccc(Cl)cc3)c3nnc(-c4ccccc4)o3)c(Cl)c2)c(=O)[nH]1` (stereo not shown) [Compound 189, (A)-2-[3,5-dichloro-4-[(4-chlorophenyl)(5-phenyl-1,3,4-oxadizol-2-yl)methyl]phenyl]-1,2,4-triazine-3,5(2H,4H)-dione] was tested, and the “% inh. (percentage inhibition of IL-5 production)” value was 82%. In the case of `CN(Cc1ccccc1)Cc1sc(C(c2ccc(Cl)cc2)c2c(Cl)cc(-n3ncc(=O)[nH]c3=O)cc2Cl)nc1-c1ccccc1` (racemic) [Comp 297], the “% inh. (percentage inhibition of IL-5 production)” value is reported as 90%. In the case of `O=c1cnn(-c2ccc(C(c3ccc(Cl)cc3)c3ccccn3)c(Cl)c2)c(=O)[nH]1` (stereo not shown) [Comp 114], the “% inh. (percentage inhibition of IL-5 production)” value is reported as 40%. With `O=c1cnn(-c2cc(Cl)c(C(Sc3nc4cc(Cl)ccc4s3)c3ccc(Cl)c(C(F)(F)F)c3)c(Cl)c2)c(=O)[nH]1` (racemic) [Compound 402] the “% inh. (percentage inhibition of IL-5 production)” value was 90%. For `O=C(NC1CCN(Cc2ccccc2)CC1)c1sc(C(c2ccc(Cl)cc2)c2c(Cl)cc(-n3ncc(=O)[nH]c3=O)cc2Cl)nc1-c1ccccc1` (racemic) [Comp 305], the “% inh. (percentage inhibition of IL-5 production)” value was 51%. `O=c1cnn(-c2cc(Cl)c(C(c3ccc(Cl)cc3)c3csc(-c4cccc(Cl)c4)n3)c(Cl)c2)c(=O)[nH]1` (racemic) [Compound 371] was tested, and the “% inh. (percentage inhibition of IL-5 production)” value was 88%. `O=c1cnn(-c2cc(Cl)c(C(Sc3nc(-c4ccccc4)cs3)c3ccc(Cl)cc3)c(Cl)c2)c(=O)[nH]1` (stereo not shown) [Compound 380] was tested, and the “% inh. (percentage inhibition of IL-5 production)” value was 95%. In the case of `Cc1nnc(SC(c2ccc(Cl)cc2)c2ccc(-n3ncc(=O)[nH]c3=O)cc2Cl)[nH]c1=O` (stereo not shown) [Compound 85], the “% inh. (percentage inhibition of IL-5 production)” value is reported as 38%. In the case of `O=c1cnn(-c2cc(Cl)c(C(Sc3nc4ccccc4s3)c3ccc(Cl)c(C(F)(F)F)c3)c(Cl)c2)c(=O)[nH]1` (stereo not shown) [Compound 385], the “% inh. (percentage inhibition of IL-5 production)” value is reported as 95%. With `CCOCCc1nnc(C(c2ccc(Cl)cc2)c2c(Cl)cc(-n3ncc(=O)[nH]c3=O)cc2Cl)o1` (racemic) [Compound 181] the “% inh. (percentage inhibition of IL-5 production)” value was 55%. For `O=c1cnn(-c2cc(Cl)c(C(Sc3cnccn3)c3ccc(Cl)c(C(F)(F)F)c3)c(Cl)c2)c(=O)[nH]1` (racemic) [Compound 401], the “% inh. (percentage inhibition of IL-5 production)” value was 92%.

Same assay, conditions: test dose 1×10^−6 M, 48 hours, read-out: % inh. (percentage inhibition of IL-5 production)
`O=c1cnn(-c2cc(Cl)c(C(c3ccc(Cl)cc3)c3nc(-c4ccccc4)cs3)c(Cl)c2)c(=O)[nH]1` (racemic) [Compound 38, (±)-2-[3,5-dichloro-4-[(4-chlorophenyl)(4-phenyl-2-thiazolyl)methyl]phenyl]-1,2,4-triazine-3,5(2H,4H)-dione] was tested, and the inhibition at 1 µM was 92%. `COC(c1ccc(Cl)cc1)(c1nccs1)c1ccc(-n2ncc(=O)[nH]c2=O)cc1Cl` (racemic) [Compound 37, (±)-2-[3-chloro-4-[(4-chlorophenyl)-methoxy(2-thiazolyl)methyl]phenyl]-1,2,4-triazine-3,5(2H,4H)-dione] was tested, and the inhibition at 1 µM was 61%.
